Measured values taken from US20240158446A1, “CYCLIC COMPOUND HAVING SELECTIVE INHIBITORY ACTION ON KRAS OVER HRAS AND NRAS” (CHUGAI SEIYAKU KABUSHIKI KAISHA, priority 2021, published 2024).

Key:
[1] = target: GDP-bound NRAS wild-type protein (Homo sapiens, UniProt P01111); assay: Binding to NRAS by surface plasmon resonance (SPR), Single Cycle Kinetics; details: SPR KD ratio NRAS/KRAS, class symbols
[2] = target: GDP-bound HRAS wild-type protein (Homo sapiens, UniProt P01112); assay: Binding to HRAS by surface plasmon resonance (SPR), Single Cycle Kinetics; details: SPR KD ratio HRAS/KRAS, class symbols
Sequence of GDP-bound HRAS wild-type protein (P01112 whole entry): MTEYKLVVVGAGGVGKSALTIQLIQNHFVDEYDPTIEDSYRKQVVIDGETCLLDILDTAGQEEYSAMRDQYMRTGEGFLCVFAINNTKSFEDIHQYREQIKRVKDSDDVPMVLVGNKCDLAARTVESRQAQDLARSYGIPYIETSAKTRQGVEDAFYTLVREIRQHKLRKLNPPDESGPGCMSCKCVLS

Sequence of GDP-bound NRAS wild-type protein (P01111 whole entry): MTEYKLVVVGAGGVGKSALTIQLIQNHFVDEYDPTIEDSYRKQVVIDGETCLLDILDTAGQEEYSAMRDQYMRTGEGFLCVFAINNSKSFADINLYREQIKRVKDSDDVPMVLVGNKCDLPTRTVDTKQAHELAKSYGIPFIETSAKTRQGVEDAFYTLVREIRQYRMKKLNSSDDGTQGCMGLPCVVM

| SMILES | NRAS/KRAS (ratio of KD value with respect to GDP-bound NRAS wild-type protein to KD value with respect to KRAS) [1] | HRAS/KRAS (ratio of KD value with respect to GDP-bound HRAS wild-type protein to KD value with respect to KRAS) [2] |
| --- | --- | --- |
| CCC[C@H]1C(=O)N[C@@H]([C@@H](C)CC)C(=O)N(C2CC2)CC(=O)N(C)[C@H]2C/C=C\CCN(C2=O)[C@@H](Cc2ccc(C)cc2)C(=O)N(C)CC(=O)N[C@@H](CCc2cc(Cl)c(C(F)F)c(Cl)c2)C(=O)N2C[C@H](OCC)C[C@H]2C(=O)NC2(CC(C)(C)C2)C(=O)N(C)[C@@H](C2CCCC2)C(=O)N(C)[C@H](C(=O)N(C)C)CC(=O)N1C [PP2877] | A (a compound having 10 or more and less than 20 is denoted as A) | A (a compound having 10 or more and less than 20 is denoted as A) |
| CCC[C@H]1C(=O)N[C@@H]([C@@H](C)CC)C(=O)N(C2CC2)CC(=O)N(C)[C@H]2C/C=C\CCN(C2=O)[C@@H](Cc2ccc(C)cc2)C(=O)N(C)CC(=O)N[C@@H](CCc2cc(F)c3c(c2)CCC3)C(=O)N2C[C@H](OCC)C[C@H]2C(=O)NC2(CC(C)(C)C2)C(=O)N(C)[C@@H](C2CCCC2)C(=O)N(C)[C@H](C(=O)N(C)C)CC(=O)N1C [PP2879] | A (a compound having 10 or more and less than 20 is denoted as A) | A (a compound having 10 or more and less than 20 is denoted as A) |
| CCC[C@H]1C(=O)N[C@@H]([C@@H](C)CC)C(=O)N(C2CC2)CC(=O)N(C)[C@H]2C/C=C\CCN(C2=O)[C@@H](Cc2ccc(C)cc2)C(=O)N(C)CC(=O)N[C@@H](CCc2cc(F)c3c(c2)OCC3)C(=O)N2C[C@H](OCC)C[C@H]2C(=O)NC2(CC(C)(C)C2)C(=O)N(C)[C@@H](C2CCCC2)C(=O)N(C)[C@H](C(=O)N(C)C)CC(=O)N1C [PP2880] | A (a compound having 10 or more and less than 20 is denoted as A) | A (a compound having 10 or more and less than 20 is denoted as A) |
| CCC[C@H]1C(=O)N[C@@H]([C@@H](C)CC)C(=O)N(C2CC2)CC(=O)N(C)[C@H]2C/C=C\CCN(C2=O)[C@@H](Cc2ccc(C)cc2)C(=O)N(C)CC(=O)N[C@@H](CCc2ccc(C(F)(F)F)c(C3CC3)c2)C(=O)N2C[C@H](OCC)C[C@H]2C(=O)NC2(CC(C)(C)C2)C(=O)N(C)[C@@H](C2CCCC2)C(=O)N(C)[C@H](C(=O)N(C)C)CC(=O)N1C [PP2881] | A (a compound having 10 or more and less than 20 is denoted as A) | A (a compound having 10 or more and less than 20 is denoted as A) |
| CCC[C@H]1C(=O)N[C@@H]([C@@H](C)CC)C(=O)N(C2CC2)CC(=O)N(C)[C@H]2C/C=C\CCN(C2=O)[C@@H](Cc2ccc(C)cc2)C(=O)N(C)CC(=O)N[C@@H](CCc2ccc(C3CC3)c(OC)c2)C(=O)N2C[C@H](OCC)C[C@H]2C(=O)NC2(CC(C)(C)C2)C(=O)N(C)[C@@H](C2CCCC2)C(=O)N(C)[C@H](C(=O)N(C)C)CC(=O)N1C [PP2883] | A (a compound having 10 or more and less than 20 is denoted as A) | A (a compound having 10 or more and less than 20 is denoted as A) |
| CCC[C@H]1C(=O)N[C@@H]([C@@H](C)CC)C(=O)N(C2CC2)CC(=O)N(C)[C@H]2C/C=C\CCN(C2=O)[C@@H](Cc2ccc(C)cc2)C(=O)N(C)CC(=O)N[C@@H](CCc2ccc(C3CC3)c(F)c2)C(=O)N2C[C@H](OCC)C[C@H]2C(=O)NC2(CC(C)(C)C2)C(=O)N(C)[C@@H](C2CCCC2)C(=O)N(C)[C@H](C(=O)N(C)C)CC(=O)N1C [PP2884] | A (a compound having 10 or more and less than 20 is denoted as A) | A (a compound having 10 or more and less than 20 is denoted as A) |
| CCC[C@H]1C(=O)N[C@@H]([C@@H](C)CC)C(=O)N(C2CC2)CC(=O)N(C)[C@H]2C/C=C\CCN(C2=O)[C@@H](Cc2ccc(C)cc2)C(=O)N(C)CC(=O)N[C@@H](CCc2ccc(C3CC3)c(Cl)c2)C(=O)N2C[C@H](OCC)C[C@H]2C(=O)NC2(CC(C)(C)C2)C(=O)N(C)[C@@H](C2CCCC2)C(=O)N(C)[C@H](C(=O)N(C)C)CC(=O)N1C [PP2885] | A (a compound having 10 or more and less than 20 is denoted as A) | A (a compound having 10 or more and less than 20 is denoted as A) |
| CCC[C@H]1C(=O)N[C@@H]([C@@H](C)CC)C(=O)N(C2CC2)CC(=O)N(C)[C@H]2C/C=C\CCN(C2=O)[C@@H](Cc2ccc(C)cc2)C(=O)N(C)CC(=O)N[C@@H](CCc2ccc(C3CC3)c(C)c2)C(=O)N2C[C@H](OCC)C[C@H]2C(=O)NC2(CC(C)(C)C2)C(=O)N(C)[C@@H](C2CCCC2)C(=O)N(C)[C@H](C(=O)N(C)C)CC(=O)N1C [PP2886] | A (a compound having 10 or more and less than 20 is denoted as A) | A (a compound having 10 or more and less than 20 is denoted as A) |
| CCC[C@H]1C(=O)N[C@@H]([C@@H](C)CC)C(=O)N(C)CC(=O)N(C)[C@H]2C/C=C\CCN(C2=O)[C@@H](Cc2ccc(C)cc2)C(=O)N(C)CC(=O)N[C@@H](CCc2ccc3sc(C)c(C)c3c2)C(=O)N2C[C@H](OCC)C[C@H]2C(=O)NC2(CC(C)(C)C2)C(=O)N(C)[C@@H](C2CCCC2)C(=O)N(C)[C@H](C(=O)N(C)C)CC(=O)N1C [PP2891] | A (a compound having 10 or more and less than 20 is denoted as A) | B (a compound having 3 or more and less than 10 is denoted as B) |
| CCC[C@H]1C(=O)N[C@@H]([C@@H](C)CC)C(=O)N(C)CC(=O)N(C)[C@H]2C/C=C\CCN(C2=O)[C@@H](Cc2ccc(C(F)(F)F)cc2)C(=O)N(C)CC(=O)N[C@@H](CCc2ccc3c(C)c(C)n(C)c3c2)C(=O)N2C[C@H](OCC)C[C@H]2C(=O)NC2(CC(C)(C)C2)C(=O)N(C)[C@@H](C(CC)CC)C(=O)N(C)[C@H](C(=O)N(C)C)CC(=O)N1C [PP2904] | AA (a compound having 20 or more is denoted as AA) | A (a compound having 10 or more and less than 20 is denoted as A) |
| CCC[C@H]1C(=O)N[C@@H]([C@@H](C)CC)C(=O)N(C)CC(=O)N(C)[C@H]2C/C=C\CCN(C2=O)[C@@H](Cc2ccc(C)cc2)C(=O)N(C)CC(=O)N[C@@H](CCc2ccc3c(C)c(C)n(C)c3c2)C(=O)N2C[C@H](OCC)C[C@H]2C(=O)NC2(CC(C)(C)C2)C(=O)N(C)[C@@H](C(CC)CC)C(=O)N(C)[C@H](C(=O)N(C)C)CC(=O)N1C [PP2906] | A (a compound having 10 or more and less than 20 is denoted as A) | A (a compound having 10 or more and less than 20 is denoted as A) |
